What all share (assay): relative viability (nuclei count vs DMSO), 5 days (fraction); higher = more cells survive
Compound in the assay “Staurosporine + OSI-027”: CN[C@@H]1C[C@H]2O[C@@](C)([C@@H]1OC)n1c3ccccc3c3c4c(c5c6ccccc6n2c5c31)C(=O)NC4 [Staurosporine] + COc1cccc2cc(-c3nc([C@H]4CC[C@H](C(=O)O)CC4)n4ncnc(N)c34)[nH]c12 [OSI-027] (partner 0.5 µM)
In a few lines: (§1)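 Values are medians from duplicate plates. Each reflects relative viability, defined as the nuclei count of treated wells over that of vehicle wells. Lung cancer cell lines in 1536-well plates were pin-tool dosed one day after seeding with one drug alone or with a fixed anchor-drug dose plus five library-drug doses (not always all listed) in √10 steps, then fixed, stained and imaged at 4× after 5 days.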

Compound in the assay “Sulindac + Tozasertib”: CC1=C(CC(=O)O)c2cc(F)ccc2/C1=C\c1ccc([S+](C)[O-])cc1 [Sulindac] + Cc1cc(Nc2cc(N3CCN(C)CC3)nc(Sc3ccc(NC(=O)C4CC4)cc3)n2)n[nH]1 [Tozasertib] (partner 0.1 µM)
In a few lines: as §1

Compound in assay [1]: O=c1[nH]cc(F)c(=O)[nH]1 [5-Fluorouracil] + CS(=O)(=O)N1CCN(Cc2cc3nc(-c4cccc5[nH]ncc45)nc(N4CCOCC4)c3s2)CC1 [Pictilisib] (partner 1 µM)
In a few lines:
as §1

Compound in assay [2]: O=c1[nH]cc(F)c(=O)[nH]1 [5-Fluorouracil] + O=C(CCCCCCC(=O)Nc1ccccc1)NO [Vorinostat] (partner 1 µM)
In a few lines:
as §1

In the supplement of paper PMC10307832 one finds relative viability data, which are given here for eight cell lines.

As for 201T, the relative viability was determined as 0.462 with Staurosporine + OSI-027 (first compound 0.005 µM); 0.338 in the assay with Staurosporine + OSI-027 (first compound 0.01581 µM); 0.454 with Staurosporine + OSI-027 (first compound 0.05 µM); 0.247 in the assay with Staurosporine + OSI-027 (first compound 0.1581 µM); 1.08 in the assay with Sulindac + Tozasertib (first compound 0.08 µM); 0.94 with Sulindac + Tozasertib (first compound 0.253 µM). In addition, the relative viability with Sulindac + Tozasertib (first compound 0.8 µM) is 0.957; with Sulindac + Tozasertib (first compound 2.53 µM) it was 0.94; with Sulindac + Tozasertib (first compound 8 µM), 0.98; in assay [1] (first compound 0.02 µM), 0.759; in assay [1] (first compound 0.2 µM) it was 0.597; in assay [1] (first compound 0.6325 µM) it was 0.442. Besides, the relative viability is 0.373 in assay [1] (first compound 2 µM); 1.04 in assay [2] (first compound 0.02 µM); 0.54 in assay [2] (first compound 0.2 µM); 0.287 in assay [2] (first compound 0.6325 µM); 0.228 in assay [2] (first compound 2 µM).
A549: the relative viability in assay [1] (first compound 0.02 µM) amounted to 0.578; in assay [1] (first compound 0.2 µM) it was 0.474; in assay [1] (first compound 0.6325 µM), 0.21; in assay [1] (first compound 2 µM), 0.12.
Regarding A-427, the relative viability with Staurosporine + OSI-027 (first compound 0.005 µM) stood at 0.363; with Staurosporine + OSI-027 (first compound 0.01581 µM), 0.158; with Staurosporine + OSI-027 (first compound 0.05 µM), 0.153; with Staurosporine + OSI-027 (first compound 0.5 µM), 0.121; in the assay with Sulindac + Tozasertib (first compound 0.08 µM) it was 0.176; with Sulindac + Tozasertib (first compound 0.253 µM), 0.198. Besides, the relative viability with Sulindac + Tozasertib (first compound 0.8 µM) worked out at 0.193; with Sulindac + Tozasertib (first compound 2.53 µM), 0.177; with Sulindac + Tozasertib (first compound 8 µM) it was 0.206; in assay [1] (first compound 0.02 µM), 0.664; in assay [1] (first compound 0.2 µM), 0.823; in assay [1] (first compound 0.6325 µM) it was 0.581. Also, the relative viability in assay [1] (first compound 2 µM) was found to be 0.587; in assay [2] (first compound 0.02 µM) it was 0.812; in assay [2] (first compound 0.2 µM), 0.921; in assay [2] (first compound 0.6325 µM), 0.783; in assay [2] (first compound 2 µM), 0.419.
As to ABC-1, the relative viability in the assay with Staurosporine + OSI-027 (first compound 0.005 µM) was 0.209; with Staurosporine + OSI-027 (first compound 0.01581 µM), 0.14; in the assay with Staurosporine + OSI-027 (first compound 0.05 µM), 0.0972; with Staurosporine + OSI-027 (first compound 0.1581 µM) it was 0.0855; with Staurosporine + OSI-027 (first compound 0.5 µM) it was 0.0778; with Sulindac + Tozasertib (first compound 0.08 µM) it was 0.12. Further, the relative viability stood at 0.147 in the assay with Sulindac + Tozasertib (first compound 0.253 µM); 0.157 with Sulindac + Tozasertib (first compound 0.8 µM); 0.162 in the assay with Sulindac + Tozasertib (first compound 2.53 µM); 0.183 with Sulindac + Tozasertib (first compound 8 µM); 0.885 in assay [1] (first compound 0.02 µM); 0.682 in assay [1] (first compound 0.2 µM). The relative viability in assay [1] (first compound 0.6325 µM) came out at 0.59; in assay [1] (first compound 2 µM), 0.599; in assay [2] (first compound 0.02 µM), 0.982; in assay [2] (first compound 0.2 µM) it was 1.24; in assay [2] (first compound 0.6325 µM), 0.963; in assay [2] (first compound 2 µM) it was 0.834.
For BEN, the relative viability with Staurosporine + OSI-027 (first compound 0.005 µM) was found to be 0.386; with Staurosporine + OSI-027 (first compound 0.01581 µM), 0.287; with Staurosporine + OSI-027 (first compound 0.05 µM) it was 0.275; with Staurosporine + OSI-027 (first compound 0.1581 µM), 0.247; with Staurosporine + OSI-027 (first compound 0.5 µM), 0.193; with Sulindac + Tozasertib (first compound 0.08 µM), 0.46. In addition, the relative viability was 0.449 in the assay with Sulindac + Tozasertib (first compound 0.253 µM); 0.519 in the assay with Sulindac + Tozasertib (first compound 0.8 µM); 0.462 with Sulindac + Tozasertib (first compound 2.53 µM); 0.566 in the assay with Sulindac + Tozasertib (first compound 8 µM); 0.557 in assay [1] (first compound 0.02 µM); 0.597 in assay [1] (first compound 0.2 µM). Further, the relative viability is 0.536 in assay [1] (first compound 0.6325 µM); 0.555 in assay [1] (first compound 2 µM); 0.566 in assay [2] (first compound 0.02 µM); 0.641 in assay [2] (first compound 0.2 µM); 0.579 in assay [2] (first compound 0.6325 µM); 0.633 in assay [2] (first compound 2 µM).
As to CAL-12T, the relative viability was found to be 0.196 with Staurosporine + OSI-027 (first compound 0.005 µM); 0.142 in the assay with Staurosporine + OSI-027 (first compound 0.01581 µM); 0.166 with Staurosporine + OSI-027 (first compound 0.05 µM); 0.152 in the assay with Staurosporine + OSI-027 (first compound 0.1581 µM); 0.09 in the assay with Staurosporine + OSI-027 (first compound 0.5 µM); 0.253 with Sulindac + Tozasertib (first compound 0.08 µM). Moreover, the relative viability is 0.282 with Sulindac + Tozasertib (first compound 0.253 µM); 0.322 in the assay with Sulindac + Tozasertib (first compound 0.8 µM); 0.301 with Sulindac + Tozasertib (first compound 2.53 µM); 0.365 with Sulindac + Tozasertib (first compound 8 µM); 0.461 in assay [1] (first compound 0.02 µM); 0.717 in assay [1] (first compound 0.2 µM). Moreover, the relative viability in assay [1] (first compound 0.6325 µM) is 0.346; in assay [1] (first compound 2 µM), 0.394; in assay [2] (first compound 0.02 µM), 0.759; in assay [2] (first compound 0.2 µM), 0.591; in assay [2] (first compound 0.6325 µM), 0.563; in assay [2] (first compound 2 µM), 0.447.
In the case of COR-L23, the relative viability in the assay with Staurosporine + OSI-027 (first compound 0.005 µM) stood at 0.462; with Staurosporine + OSI-027 (first compound 0.01581 µM) it was 0.381; in the assay with Staurosporine + OSI-027 (first compound 0.05 µM), 0.199; with Staurosporine + OSI-027 (first compound 0.1581 µM), 0.104; with Staurosporine + OSI-027 (first compound 0.5 µM) it was 0.0775; in the assay with Sulindac + Tozasertib (first compound 0.08 µM), 0.591. Moreover, the relative viability came to 0.242 in the assay with Sulindac + Tozasertib (first compound 0.253 µM); 0.179 in the assay with Sulindac + Tozasertib (first compound 0.8 µM); 0.186 with Sulindac + Tozasertib (first compound 2.53 µM); 0.238 with Sulindac + Tozasertib (first compound 8 µM); 0.864 in assay [1] (first compound 0.02 µM); 0.711 in assay [1] (first compound 0.2 µM). Besides, the relative viability in assay [1] (first compound 0.6325 µM) stood at 0.367; in assay [1] (first compound 2 µM) it was 0.231; in assay [2] (first compound 0.02 µM), 0.455; in assay [2] (first compound 0.2 µM), 0.372; in assay [2] (first compound 0.6325 µM) it was 0.239; in assay [2] (first compound 2 µM), 0.159.
Consider COR-L 105, for which the relative viability with Staurosporine + OSI-027 (first compound 0.005 µM) was 0.279; in the assay with Staurosporine + OSI-027 (first compound 0.01581 µM), 0.173; with Staurosporine + OSI-027 (first compound 0.05 µM), 0.269; with Staurosporine + OSI-027 (first compound 0.1581 µM) it was 0.266; in the assay with Staurosporine + OSI-027 (first compound 0.5 µM) it was 0.183; with Sulindac + Tozasertib (first compound 0.08 µM), 0.291. Besides, the relative viability in the assay with Sulindac + Tozasertib (first compound 0.253 µM) was found to be 0.349; with Sulindac + Tozasertib (first compound 0.8 µM), 0.348; in the assay with Sulindac + Tozasertib (first compound 2.53 µM) it was 0.373; with Sulindac + Tozasertib (first compound 8 µM) it was 0.391; in assay [1] (first compound 0.02 µM), 0.473; in assay [1] (first compound 0.2 µM), 0.458. In addition, the relative viability in assay [1] (first compound 0.6325 µM) came out at 0.4; in assay [1] (first compound 2 µM), 0.391; in assay [2] (first compound 0.02 µM), 0.718; in assay [2] (first compound 0.2 µM), 0.881; in assay [2] (first compound 0.6325 µM), 0.771; in assay [2] (first compound 2 µM), 0.626.
